Results from patent US10035792B2, “Resorcinol derivative as HSP90 inhibitor” (priority 2015, dated 2018).

Key:
HSP90α = HSP90α (Homo sapiens (Human), UniProt P07900); assay: Fluorescence polarization (FP) HSP90-alpha target binding assay; conditions: fluorescence polarization; read-out: Target binding ability HSP90α FP IC50
How it was run: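 Displacement of 5 nM GM-BODIPY from 30 nM HSP90 measured by fluorescence polarization (ex 485/em 535 nm). Buffer: 100 mM Tris-Cl pH 7.4, 20 mM KCl, 6 mM MgCl2, 5 μg/mL BSA. Incubation 12–16 h at 4 °C. Percent inhibition from mP relative to compound-free and tracer-only controls.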

[1] = system: human colon cancer cell line HCT116; assay: Tumor cell growth inhibition, SRB staining, HCT116; format: cell-based; conditions: HCT-116, HCT116, 72 h
Experimental: The growth inhibition assay of tumor cells was detected by sulforhodamine B (SRB) staining method. The specific steps were as follows: inoculating human colon cancer cell line HCT116 and human lung cancer cell line A549 (purchased from American Type Culture Collection, ATCC) at the logarithmic growth phase into a 96-well micro culture plate at an appropriate concentration of 4000 cells/well, 100 μL for each well; after culturing overnight, adding with the compound at different concentrations (100, 10, 1, 0.1, 0.01 μM) to react for 72 h, wherein triplicate wells were set up for each concentration, and solvent control wells with the corresponding concentration and zero wells without cells were also set up. After the completion of the reaction, the culture medium was removed from the adherent cells, the later was added with 10% (w/v) trichloroacetic acid (100 μL/well) at 4° C. to fix for 1 h, and then washed five times with distilled water. After drying at room temperature, 100 μL of SRB solution (4 mg/mL, dissolved in 1% glacial acetic acid) was added into each well, followed by incubation and staining for 15 min at room temperature. The uncombined SRB was removed by washing five times with 1% glacial acetic acid. After drying at room temperature, 100 μL of 10 mM Tris solution was added into each well, and the optical density (OD) at 515 nm was measured by a […] microplate reader. The inhibition rate of the drug to tumor cell growth was calculated according to the following equation: Inhibition rate (%)=(OD of control well-OD of drug well)/OD of control well×100%. The experiment was repeated twice.

[2] = system: human lung cancer cell line A549; assay: Tumor cell growth inhibition, SRB staining, A549; format: cell-based; conditions: A549, 72 h
How it was run: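 Growth inhibition by SRB staining: 4000 cells/well seeded overnight, then compound at 100, 10, 1, 0.1 and 0.01 μM for 72 h in triplicate. Fixed with TCA, OD read at 515 nm. Inhibition rate taken against solvent control; experiment done twice.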

A549 tumor cells = assay: In vivo efficacy, A549 transplantation tumor in nude mice; conditions: A549 xenograft, 50 mg/kg intravenously twice a week
Experimental: (§1) A549 tumor cells were subcutaneously inoculated in the right armpit of nude mice in 5×10^6 cells/mouse, to form a transplantion tumor. When the volume reached 100-200 mm^3, the animals were randomly divided according to tumor volume, into the negative control group (n=5), the positive control group groups (n=5 in each group), and the experimental groups (n=5 in each group). The experimental groups were respectively injected intravenously with the positive drug Luminespib (50 mg/kg) and compound 1 (50 mg/kg) at different concentrations, twice a week, and the negative control group was administrated an equal amount of solvent simultaneously. The length (A) and width (B) of the tumor were measured twice a week with a vernier caliper, and the tumor volume was calculated according to V=A×B^2/2. Relative tumor volume (RTV) was calculated as follows: RTV=Vt/V0, wherein Vt is the tumor volume at the end of the administration, and V0 is the tumor volume measured before separation and administration. The pharmacodynamic evaluation index of antitumor activity is relative tumor proliferation rate T/C (%), and the calculation formula is: T/C (%)=TRTV/CRTV×100%, wherein TRTV: RTV of the treatment group; CRTV: RTV of the negative control group. Efficacy evaluation criteria: T/C %>60% is inefficient; T/C %≤60% and P<0.05 by statistical treatment is effective. The tumor growth inhibition rate (TGI) was calculated as follows: TGI (%)={[(CVt−CV0)−(TVt−TV0)]/(CVt−CV0)}×100%
(§2) Wherein, CVt is the tumor volume of the control group at the end of the administration; CV0 is the tumor volume of the control group before separation and administration; TVt is the tumor volume of the administration group at the end of the administration; and TV0 is the tumor volume of the administration group before separation and administration. The difference in tumor volume between the administration group and the control group was examined by t-test. At the same time, the body weights of nude mice in each group were weighed twice a week to preliminarily evaluate the toxic side effects of the drug.

in vivo = assay: in vivo; parameters: species or system SD rats; conditions: male, SD, rat, iv, 1 mg/kg
Experimental: SD rats were used as the subject animals. The drug concentrations in plasma, lung and breast tissue were measured by LC/MS/MS method at different times after the compound of Example 67 was intravenously injected at the tails of rats. The tissue distribution of the compounds of the present invention in rats was studied and their pharmacokinetic characteristics were evaluated. 2.1 Experimental Drugs: Luminespib, Ganetespib and the compound of Example 67. Healthy adult male SD rats, 100-200 g, 9 rats in total, purchased from Shanghai Slack Laboratory Animal Co., Ltd. The appropriate amounts of the samples were weighed. All of Luminespib, Ganetespib and the compound 67 of the present invention were formulated into clear solutions in […] in 10% DMSO/14% Cremophor RH40/76% D5W, for intravenous injection. 9 SD male rats were divided into three groups, three rats in each group. After normal feeding, administrations were carried out in tails by intravenous injection at the dose of 1 mg/kg. Samples were collected from blood, lung and breast tissues in three group rats at 0.5 h, 6 h and 24 h after administration. The blood samples were centrifuged at 4° C., 3000 rpm for 15 min within half an hour after collection, to separate and obtain plasma samples. The resulting plasma samples were placed in polypropylene tubes and stored at −80° C. for LC/MS/MS analysis. After the collection of the blood samples, the animals were sacrificed with CO2, followed by collection of the tissue samples. Each of the tissue samples was washed twice with cold deionized water and adhered to filter papers. Each of the tissue samples was then homogenized several times in MeOH/15 mM PBS (1:2) (5 mL MeOH/15 mM PBS (1:2) per gram of tissue, with a dilution factor of 6) to ensure the formation of homogeneous phase. The whole process was carried out below freezing point temperature. The homogenized samples were quickly frozen by using dry ice and stored at −80° C. for bioanalysis. The contents of the test compound in rat plasma, lung and breast tissue after injection administration were measured by LC/MS/MS.

BT-474 tumor cells = assay: In vivo efficacy, BT-474 breast cancer transplantation tumor in nude mice; conditions: BT-474 xenograft
Experimental: as §1, with “BT-474 tumor” for “A549 tumor”, “group (n=6),” for “group (n=5),”, “groups (n=6” for “groups (n=5”, “drug Ganetespib (20” for “drug Luminespib (50”, “compound 67 (10 mg/kg and 20” for “compound 1 (50”, “concentrations, three times” for “concentrations, twice”
as §2

[3] = concentration in breast tissue (nM)
[4] = 10 mpk intravenously three times a week
[5] = 20 mpk intravenously three times a week

## CCNC(=O)c1noc(-c2cc(C(C)C)c(O)cc2O)c1-c1ccc2c(c1)CCN(C)C2 [Example 1, 5-(2,4-dihydroxyl-5-isopropylphenyl)-N-ethyl-4-(2-methyl-1,2,3,4-tetrahydroisoquinolin-6-yl)isoxazole-3-carboxamide]
HSP90α
  IC50: < 20 nM
[1]
  EC50: < 20 nM
[2]
  EC50: < 20 nM
A549 tumor cells
  TGI (%) Day 7: 20%
  TGI (%) Day 11: 40%
  TGI (%) Day 14 (stopping administration): 63%
  TGI (%) Day 17: 71%
  TGI (%) Day 28: 60%

## CCNC(=O)c1noc(-c2cc(C(C)C)c(O)cc2O)c1-c1ccc2c(c1)N(C)CCC2 [Example 2, 5-(2,4-dihydroxyl-5-isopropylphenyl)-N-ethyl-4-(1-methyl-1,2,3,4-tetrahydroquinolin-7-yl)isoxazole-3-carboxamide]
HSP90α
  IC50: 20 to 100 nM
[1]
  EC50: 20 to 100 nM

## CCNC(=O)c1noc(-c2cc(C(C)C)c(O)cc2O)c1-c1ccc2c(c1)CCCN2C [Example 3, 5-(2,4-dihydroxyl-5-isopropylphenyl)-N-ethyl-4-(1-methyl-1,2,3,4-tetrahydroquinolin-6-yl)isoxazole-3-carboxamide]
HSP90α
  IC50: 20 to 100 nM
[1]
  EC50: 20 to 100 nM

## CCNC(=O)c1nsc(-c2cc(C(C)C)c(O)cc2O)c1-c1ccc2c(c1)CCN(C)C2 [Example 13, 5-(2,4-dihydroxyl-5-isopropyl-phenyl)-N-ethyl-4-(2-methyl-1,2,3,4-tetrahydroisoquinolin-6-yl)isothiazole-3-carboxamide]
HSP90α
  IC50: > 100 nM
[1]
  EC50: > 100 nM

## CCNC(=O)c1noc(-c2cc(C(C)C)c(O)cc2O)c1C1=CC2CN(C)CC2C1 (stereo not drawn) [Example 14, 5-(2,4-dihydroxyl-5-isopropyl-phenyl)-N-ethyl-4-(2-methyl-1,2,3,3a,4,6a-hexahydrocyclopenta[c]pyrrol-5-yl)isoxazole-3-carboxamide]
HSP90α
  IC50: < 20 nM
[1]
  EC50: < 20 nM

## CCNC(=O)c1onc(-c2cc(C(C)C)c(O)cc2O)c1-c1ccc2c(c1)CCNC2 [Example 67, 3-(2,4-dihydroxyl-5-isopropylphenyl)-N-ethyl-4-(1,2,3,4-tetrahydroisoquinolin-6-yl)isoxazole-5-carboxamide]
HSP90α
  IC50: < 20 nM
[2]
  EC50: < 20 nM
In vivo
  breast tissue exposure dose: 7226 nM·h
  plasma exposure dose: 415 nM·h
  pulmonary exposure dose: 30933 nM·h
In vivo; [3]
  concentration at 0.5 h: 395 nM
  concentration at 6 h: 376 nM
  concentration at 24 h: 199 nM
In vivo; plasma concentration (nM)
  concentration at 0.5 h: 115 nM
  concentration at 6 h: 9.98 nM
  concentration at 24 h: 3.72 nM
In vivo; pulmonary concentration (nM)
  concentration at 0.5 h: 3040 nM
  concentration at 6 h: 1530 nM
  concentration at 24 h: 613 nM
BT-474 tumor cells; [4]
  TGI (%) Day 21: 137%
  TGI (%) Day 35: 120%
BT-474 tumor cells; [5]
  TGI (%) Day 21: 135%
  TGI (%) Day 35: 129%

## CC(C)c1cc(-c2n[nH]c(=O)n2-c2ccc3c(ccn3C)c2)c(O)cc1O [Ganetespib]
In vivo; [3]
  concentration at 0.5 h: 352 nM
  concentration at 6 h: 70.9 nM
In vivo; plasma concentration (nM)
  concentration at 0.5 h: 267 nM
  concentration at 6 h: 4.46 nM
In vivo; pulmonary concentration (nM)
  concentration at 0.5 h: 1010 nM
  concentration at 6 h: 101 nM
BT-474 tumor cells; [5]
  TGI (%) Day 21: 124%
  TGI (%) Day 35: 108%

## CCNC(=O)c1noc(-c2cc(C(C)C)c(O)cc2O)c1-c1ccc(CN2CCOCC2)cc1 [Luminespib]
A549 tumor cells
  TGI (%) Day 7: 18%
  TGI (%) Day 11: 34%
  TGI (%) Day 14 (stopping administration): 49%
  TGI (%) Day 17: 52%
  TGI (%) Day 28: 35%
In vivo
  pulmonary exposure dose: 5284 nM·h
In vivo; [3]
  concentration at 0.5 h: 104 nM
  concentration at 6 h: 61.4 nM
In vivo; plasma concentration (nM)
  concentration at 0.5 h: 67.1 nM
In vivo; pulmonary concentration (nM)
  concentration at 0.5 h: 1000 nM
  concentration at 6 h: 257 nM
  concentration at 24 h: 35.9 nM
